Patent US6642250B2, “1,8-naphthyridin-2(1H)-one derivatives” (Grelan Pharmaceutical Co., Ltd., priority 1999, dated 2003)

Test system: Female beagles
Assay type: in vivo
Details: fed female beagles, oral, emesis within 3 hours
Protocol: Female beagles (each group consisting of 3 dogs) as used herein were fed. One hour later, a suspension of each test compound in 0.5% CMC—Na solution was administered orally to the animals in a forced manner. […] Next, each maximum tolerance dose against emesis was obtained. […]

COc1ccc(C2CNC(=O)C2)cc1OC1CCCC1 (single isomer, unassigned) [Rolipram, rolipram, reference compound]
Maximum Tolerance Dose against Emesis: <0.1 mg/kg

O=c1c(CCCc2ccncc2)cc2cccnc2n1-c1cccc([N+](=O)[O-])c1 [Example No. 8, 1-(3-Nitrophenyl)-3-[3-(pyridin-4-yl)propyl]-1,8-naphthyridin-2(1H)-one]
Maximum Tolerance Dose against Emesis: 0.3 mg/kg
